Reference: ChEMBL document CHEMBL1142788, “Synthesis and antibacterial activity of alkyl derivatives of the glycopeptide antibiotic A40926 and their amides” (2005)
Values after ≈ are worked out from the molar mass of the structure shown.

Columns and labels:
[1] = test system: Enterococcus faecium; experiment: Minimum inhibitory concentration against vancomycin-A Enterococcus faecium in the presence of 30% bovine serum (n=1) (range = 0.5>128mg/l); assay type: functional
[2] = test system: Enterococcus faecalis; experiment: Minimum inhibitory concentration against vancomycin-A Enterococcus faecalis in the presence of 30% bovine serum (n=4) (range = 2-4 mg/L); assay type: functional
[3] = test system: Enterococcus faecalis; experiment: Minimum inhibitory concentration against vancomycin-sensitive Enterococcus faecalis in the presence of 30% bovine serum(n=3)(range = 0.25-1mg/l); assay type: functional
[4] = test system: Staphylococcus epidermidis; experiment: Minimum inhibitory concentration against methicillin-sensitive Staphylococcus epidermidis in the presence of 30% bovine serum; assay type: functional
[5] = test system: Staphylococcus haemolyticus; experiment: Minimum inhibitory concentration against Staphylococcus haemolyticus in the presence of 30% bovine serum; assay type: functional
[6] = test system: Staphylococcus epidermidis; experiment: Minimum inhibitory concentration against methicillin-resistant Staphylococcus epidermidis in the presence of 30% bovine serum; assay type: functional
[7] = test system: Enterococcus faecium; experiment: Minimum inhibitory concentration against vancomycin-sensitive Enterococcus faecium in the presence of 30% bovine serum(n=1); assay type: functional
[8] = test system: Staphylococcus aureus; experiment: Minimum inhibitory concentration against methicillin-resistant Staphylococcus aureus
[9] = test system: Enterococcus faecium; experiment: Minimum inhibitory concentration against vancomycin-A Enterococcus faecium in the presence of 30% bovine serum (n=1) (range = 2>128mg/l); assay type: functional
[10] = test system: Enterococcus faecalis; experiment: Minimum inhibitory concentration against vancomycin-sensitive Enterococcus faecalis in the presence of 30% bovine serum (n=3) (range = 0.5-1mg/l); assay type: functional
[11] = test system: Enterococcus faecalis; experiment: Minimum inhibitory concentration against vancomycin-A Enterococcus faecalis in the presence of 30% bovine serum (n=4); assay type: functional
[12] = test system: Staphylococcus aureus; experiment: Minimum inhibitory concentration against methicillin-sensitive Staphylococcus aureus
[13] = test system: Enterococcus faecium; experiment: Minimum inhibitory concentration against vancomycin-A Enterococcus faecium in the presence of 30% bovine serum (n=1) (range = 64>128mg/L); assay type: functional
[14] = test system: Enterococcus faecalis; experiment: Minimum inhibitory concentration against vancomycin-sensitive Enterococcus faecalis in the presence of 30% bovine serum(n=3)(range = 0.5-1mg/l); assay type: functional
[15] = test system: Enterococcus faecalis; experiment: Minimum inhibitory concentration against vancomycin-sensitive Enterococcus faecalis in the presence of 30% bovine serum(n=3)(range = 8-4); assay type: functional
[16] = test system: Enterococcus faecalis; experiment: Minimum inhibitory concentration against vancomycin-A Enterococcus faecalis in the presence of 30% bovine serum(n=4) (range = 0.125-16mg/L); assay type: functional
[17] = test system: Enterococcus faecium; experiment: Minimum inhibitory concentration against vancomycin-A Enterococcus faecium in the presence of 30% bovine serum (n=1); assay type: functional
[18] = test system: Enterococcus faecium; experiment: Minimum inhibitory concentration against vancomycin-A Enterococcus faecium in the presence of 30% bovine serum (n=1) (range = 816 mg/L); assay type: functional
[19] = test system: Enterococcus faecalis; experiment: Minimum inhibitory concentration against vancomycin-A Enterococcus faecalis in the presence of 30% bovine serum (n=4) (Range = 0.125 - 16 mg/L); assay type: functional
[20] = test system: Enterococcus faecalis; experiment: Minimum inhibitory concentration against vancomycin-sensitive Enterococcus faecalis in the presence of 30% bovine serum (n=3); assay type: functional
[21] = test system: Enterococcus faecalis; experiment: Minimum inhibitory concentration against vancomycin-sensitive Enterococcus faecalis in the presence of 30% bovine serum (n=3) (range = 0.125-0.5); assay type: functional
[22] = test system: Enterococcus faecium; experiment: Minimum inhibitory concentration against vancomycin-A Enterococcus faecium in the presence of 30% bovine serum (n=1) (range = 0.125-128mg/l); assay type: functional
[23] = test system: Enterococcus faecalis; experiment: Minimum inhibitory concentration against vancomycin-A Enterococcus faecalis (n=4) (range = 2-128mg/L)
[24] = test system: Enterococcus faecium; experiment: Minimum inhibitory concentration against vancomycin-A Enterococcus faecium in the presence of 30% bovine serum (n=1) (range = 2-64mg/L); assay type: functional
[25] = test system: Enterococcus faecalis; experiment: Minimum inhibitory concentration against vancomycin-sensitive Enterococcus faecalis in the presence of 30% bovine serum(n=3)(range =0.125-0.25 mg/l); assay type: functional
[26] = test system: Enterococcus faecalis; experiment: Minimum inhibitory concentration against vancomycin-sensitive Enterococcus faecalis in the presence of 30% bovine serum(n=3)(range = 0.125 - 0.16 mg/l); assay type: functional
[27] = test system: Enterococcus faecium; experiment: Minimum inhibitory concentration against vancomycin-A Enterococcus faecium in the presence of 30% bovine serum (n=1) (range = 0.125-16mg/l); assay type: functional
[28] = test system: Enterococcus faecalis; experiment: Minimum inhibitory concentration against vancomycin-A Enterococcus faecalis (n=4) (range = 0.25-8mg/L)
[29] = test system: Enterococcus faecium; experiment: Minimum inhibitory concentration against vancomycin-A Enterococcus faecium in the presence of 30% bovine serum (n=1) (range = 1>128mg/l); assay type: functional
[30] = test system: Enterococcus faecalis; experiment: Minimum inhibitory concentration against vancomycin-A Enterococcus faecalis in the presence of 30% bovine serum(n=4) (range = 16>128mg/L); assay type: functional

Row | SMILES | MIC [4] [µg/mL] | MIC [5] [µg/mL] | MIC [6] [µg/mL] | MIC [7] [µg/mL] | MIC [8] [µg/mL] | MIC [12] [µg/mL] | MIC [20] [µg/mL] | other results
1 | CCCCc1ccc(CNC2[C@H](Oc3c4cc5cc3Oc3ccc(cc3Cl)[C@@H](O)C3NC(=O)[C@H](NC(=O)[C@@H]5NC(=O)[C@H]5NC(=O)[C@@H](Cc6ccc(cc6)O4)NC(=O)[C@H](N(C)Cc4ccc(CCCC)cc4)c4ccc(O)c(c4)Oc4cc(O)c(Cl)c5c4)c4ccc(O)c(c4)-c4c(O[C@H]5O[C@H](CO)[C@@H](O)[C@H](O)[C@@H]5O)cc(O)cc4[C@@H](C(=O)O)NC3=O)OC(C(=O)O)C(O)[C@@H]2O)cc1 (stereo partly specified) | 4 | 8 | 8 | 1 | 2 (≈ 1.09 µM) | – | – | MIC [1]: > 128 µg/mL; MIC [2]: 4 µg/mL; MIC [3]: 1 µg/mL
2 | CN(Cc1c[nH]c2ccccc12)[C@H]1C(=O)N[C@@H]2Cc3ccc(cc3)Oc3cc4cc(c3O[C@@H]3OC(C(=O)O)C(O)[C@H](O)C3NCc3c[nH]c5ccccc35)Oc3ccc(cc3Cl)[C@@H](O)C3NC(=O)[C@H](NC(=O)[C@@H]4NC(=O)[C@@H](NC2=O)c2cc(cc(O)c2Cl)Oc2cc1ccc2O)c1ccc(O)c(c1)-c1c(O[C@H]2O[C@H](CO)[C@@H](O)[C@H](O)[C@@H]2O)cc(O)cc1[C@@H](C(=O)O)NC3=O (stereo partly specified) | 64 | > 128 | 128 | 2 | 2 (≈ 1.11 µM) | 4 (≈ 2.21 µM) | – | MIC [9]: > 128 µg/mL; MIC [10]: 1 µg/mL; MIC [11]: 32 µg/mL
3 | CN(Cc1ccc2ccccc2c1)[C@H]1C(=O)N[C@@H]2Cc3ccc(cc3)Oc3cc4cc(c3O[C@@H]3OC(C(=O)O)C(O)[C@H](O)C3N)Oc3ccc(cc3Cl)[C@@H](O)C3NC(=O)[C@H](NC(=O)[C@@H]4NC(=O)[C@@H](NC2=O)c2cc(cc(O)c2Cl)Oc2cc1ccc2O)c1ccc(O)c(c1)-c1c(O[C@H]2O[C@H](CO)[C@@H](O)[C@H](O)[C@@H]2O)cc(O)cc1[C@@H](C(=O)O)NC3=O (stereo partly specified) | 16 | 128 | 32 | 1 | 2 (≈ 1.18 µM) | 2 (≈ 1.18 µM) | – | MIC [13]: > 128 µg/mL; MIC [14]: 1 µg/mL; MIC [11]: 128 µg/mL
4 | CCCCC(CC)Oc1ccc(CNC2[C@H](Oc3c4cc5cc3Oc3ccc(cc3Cl)[C@@H](O)C3NC(=O)[C@H](NC(=O)[C@@H]5NC(=O)[C@H]5NC(=O)[C@@H](Cc6ccc(cc6)O4)NC(=O)[C@H](NC)c4ccc(O)c(c4)Oc4cc(O)c(Cl)c5c4)c4ccc(O)c(c4)-c4c(O[C@H]5O[C@H](CO)[C@@H](O)[C@H](O)[C@@H]5O)cc(O)cc4[C@@H](C(=O)NCCCN(C)C)NC3=O)OC(C(=O)NCCCN(C)C)C(O)[C@@H]2O)cc1 (stereo partly specified) | < 0.125 | 4 | – | < 0.125 | – | < 0.125 | – | MIC [15]: < 0.125 µg/mL; MIC [16]: < 16 µg/mL; MIC [17]: 16 µg/mL
5 | CCCCCCOc1ccc(CNC2[C@H](Oc3c4cc5cc3Oc3ccc(cc3Cl)[C@@H](O)C3NC(=O)[C@H](NC(=O)[C@@H]5NC(=O)[C@H]5NC(=O)[C@@H](Cc6ccc(cc6)O4)NC(=O)[C@H](NC)c4ccc(O)c(c4)Oc4cc(O)c(Cl)c5c4)c4ccc(O)c(c4)-c4c(O[C@H]5O[C@H](CO)[C@@H](O)[C@H](O)[C@@H]5O)cc(O)cc4[C@@H](C(=O)NCCCN(C)C)NC3=O)OC(C(=O)NCCCN(C)C)C(O)[C@@H]2O)cc1 (stereo partly specified) | < 0.125 | 16 | – | < 0.125 | – | > 0.125 | < 0.125 | MIC [18]: > 16 µg/mL; MIC [19]: 16 µg/mL
6 | CCCCn1cc(CNC2[C@H](Oc3c4cc5cc3Oc3ccc(cc3Cl)[C@@H](O)C3NC(=O)[C@H](NC(=O)[C@@H]5NC(=O)[C@H]5NC(=O)[C@@H](Cc6ccc(cc6)O4)NC(=O)[C@H](N(C)Cc4cn(CCCC)c6ccccc46)c4ccc(O)c(c4)Oc4cc(O)c(Cl)c5c4)c4ccc(O)c(c4)-c4c(O[C@H]5O[C@H](CO)[C@@H](O)[C@H](O)[C@@H]5O)cc(O)cc4[C@@H](C(=O)NCCCN(C)C)NC3=O)OC(C(=O)NCCCN(C)C)C(O)[C@@H]2O)c2ccccc21 (stereo partly specified) | 0.25 | 0.25 | 2 | 0.125 | 2 (≈ 0.957 µM) | 0.5 (≈ 0.239 µM) | – | MIC [21]: < 0.5 µg/mL; MIC [22]: 128 µg/mL; MIC [23]: 128 µg/mL (≈ 61.3 µM)
7 | CCCCCCCCCCc1ccc(CNC2[C@H](Oc3c4cc5cc3Oc3ccc(cc3Cl)[C@@H](O)C3NC(=O)[C@H](NC(=O)[C@@H]5NC(=O)[C@H]5NC(=O)[C@@H](Cc6ccc(cc6)O4)NC(=O)[C@H](NC)c4ccc(O)c(c4)Oc4cc(O)c(Cl)c5c4)c4ccc(O)c(c4)-c4c(O[C@H]5O[C@H](CO)[C@@H](O)[C@H](O)[C@@H]5O)cc(O)cc4[C@@H](C(=O)O)NC3=O)OC(C(=O)O)C(O)[C@@H]2O)cc1 (stereo partly specified) | 32 | 32 | – | 0.5 | 2 (≈ 1.12 µM) | 4 (≈ 2.25 µM) | – | MIC [24]: > 64 µg/mL; MIC [25]: 0.125 µg/mL
8 | CCCCCCOc1ccc(CNC2[C@H](Oc3c4cc5cc3Oc3ccc(cc3Cl)[C@@H](O)C3NC(=O)[C@H](NC(=O)[C@@H]5NC(=O)[C@H]5NC(=O)[C@@H](Cc6ccc(cc6)O4)NC(=O)[C@H](NC)c4ccc(O)c(c4)Oc4cc(O)c(Cl)c5c4)c4ccc(O)c(c4)-c4c(O[C@H]5O[C@H](CO)[C@@H](O)[C@H](O)[C@@H]5O)cc(O)cc4[C@@H](C(=O)NCCCN(C)C)NC3=O)OC(C(=O)NCCCN(C)C)C(O)[C@@H]2O)cc1OCC (stereo partly specified) | < 0.125 | 2 | – | < 0.125 | – | < 0.125 | – | MIC [26]: < 0.125 µg/mL; MIC [19]: < 16 µg/mL; MIC [17]: > 16 µg/mL
9 | CCCCOc1ccc(CNC2[C@H](Oc3c4cc5cc3Oc3ccc(cc3Cl)[C@@H](O)C3NC(=O)[C@H](NC(=O)[C@@H]5NC(=O)[C@H]5NC(=O)[C@@H](Cc6ccc(cc6)O4)NC(=O)[C@H](N(C)Cc4ccc(OCCCC)cc4)c4ccc(O)c(c4)Oc4cc(O)c(Cl)c5c4)c4ccc(O)c(c4)-c4c(O[C@H]5O[C@H](CO)[C@@H](O)[C@H](O)[C@@H]5O)cc(O)cc4[C@@H](C(=O)NCCCN(C)C)NC3=O)OC(C(=O)NCCCN(C)C)C(O)[C@@H]2O)cc1 (stereo partly specified) | < 0.125 | 1 | 0.5 | 0.125 | 1 (≈ 0.489 µM) | 0.25 (≈ 0.122 µM) | < 0.125 | MIC [27]: > 16 µg/mL; MIC [28]: 8 µg/mL (≈ 3.92 µM)
10 | CCCCn1cc(CNC2[C@H](Oc3c4cc5cc3Oc3ccc(cc3Cl)[C@@H](O)C3NC(=O)[C@H](NC(=O)[C@@H]5NC(=O)[C@H]5NC(=O)[C@@H](Cc6ccc(cc6)O4)NC(=O)[C@H](N(C)Cc4cn(CCCC)c6ccccc46)c4ccc(O)c(c4)Oc4cc(O)c(Cl)c5c4)c4ccc(O)c(c4)-c4c(O[C@H]5O[C@H](CO)[C@@H](O)[C@H](O)[C@@H]5O)cc(O)cc4[C@@H](C(=O)O)NC3=O)OC(C(=O)O)C(O)[C@@H]2O)c2ccccc21 (stereo partly specified) | 4 | 64 | 32 | < 0.125 | 2 (≈ 1.04 µM) | 4 (≈ 2.08 µM) | 0.25 | MIC [29]: > 128 µg/mL; MIC [30]: > 128 µg/mL
